Measured values: patent US10792377B2, “Compounds and method for imaging cancer” (Vanderbilt University, priority 2017, dated 2020)
Where two headings read alike, the source gives them in different places.

Experiments:
[1] = target: T1, ovine COX-1 (Ovis aries, UniProt P05979); assay: In vitro purified COX-1 inhibition assay (TLC, 14C-arachidonic acid); format: biochemical
T1 sequence (P05979 25-600): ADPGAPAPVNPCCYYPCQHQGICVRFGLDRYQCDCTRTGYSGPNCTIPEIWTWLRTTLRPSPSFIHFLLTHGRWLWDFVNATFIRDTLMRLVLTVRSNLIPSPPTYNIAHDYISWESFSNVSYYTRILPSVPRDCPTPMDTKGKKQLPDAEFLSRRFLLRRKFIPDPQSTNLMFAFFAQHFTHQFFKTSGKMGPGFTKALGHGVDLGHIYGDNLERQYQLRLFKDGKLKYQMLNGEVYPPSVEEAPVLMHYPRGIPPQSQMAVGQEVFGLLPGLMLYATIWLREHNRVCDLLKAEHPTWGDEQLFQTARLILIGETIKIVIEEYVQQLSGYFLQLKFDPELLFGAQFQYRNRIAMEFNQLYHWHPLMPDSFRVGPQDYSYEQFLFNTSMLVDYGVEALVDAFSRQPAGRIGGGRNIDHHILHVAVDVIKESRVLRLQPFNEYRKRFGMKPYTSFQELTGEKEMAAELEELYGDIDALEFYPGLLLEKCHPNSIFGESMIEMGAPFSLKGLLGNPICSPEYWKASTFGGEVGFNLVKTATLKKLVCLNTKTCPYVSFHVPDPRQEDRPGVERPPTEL
Procedure: (§1) The in vitro cyclooxygenase (ovine COX-1 or human COX-2) inhibitory activities of these probes were tested by a previously described TLC assay (FIGS. 19-21). Briefly, reaction mixtures of 200 μL consisted of hematin-reconstituted protein in 100 mM Tris-HCl, pH 8.0, 500 μM phenol, and [1-^14C]arachidonic acid (50 μM, about 55-57 mCi/mmol, Perkin Elmer).
Inhibition Assay Using Purified COX-1 and COX-2. Inhibition of purified ovine COX-1 or mouse COX-2 by test compounds was assayed by a previously described method, which quantifies the conversion of [1-^14C]arachidonic acid to [1-^14C]prostaglandin products. Reaction mixtures of 200 ∝L consisted of hematin-reconstituted protein in 100 mM Tris-HCl, pH 8.0, 500 μM phenol, and [1-^14C]arachidonic acid (50 μM, ˜55-57 mCi/mmol, Perkin Elmer). […] Reactions were terminated by solvent extraction in diethyl ether:methanol:1 M citrate buffer, pH 4.0 (30:4:1). The phases were separated by centrifugation at 2000 g for 2 min, and the organic phase was spotted on a thin-layer chromatography plate (EMD Kieselgel 60, VWR). The plate was developed in ethyl acetate:methylene chloride:glacial AcOH (75:25:1) at 4° C. Radiolabeled products were quantified with a radioactivity scanner (Bioscan, Inc., Washington, D.C.).

[2] = target: T2, murine COX-2 (Mus musculus, UniProt Q05769); assay: In vitro purified COX-2 inhibition assay (TLC, 14C-arachidonic acid); format: biochemical; details: for COX-2 Selectivity Index (COX-1 IC50/COX-2 IC50): in vitro, purified enzymes
T2 sequence (Q05769 18-604): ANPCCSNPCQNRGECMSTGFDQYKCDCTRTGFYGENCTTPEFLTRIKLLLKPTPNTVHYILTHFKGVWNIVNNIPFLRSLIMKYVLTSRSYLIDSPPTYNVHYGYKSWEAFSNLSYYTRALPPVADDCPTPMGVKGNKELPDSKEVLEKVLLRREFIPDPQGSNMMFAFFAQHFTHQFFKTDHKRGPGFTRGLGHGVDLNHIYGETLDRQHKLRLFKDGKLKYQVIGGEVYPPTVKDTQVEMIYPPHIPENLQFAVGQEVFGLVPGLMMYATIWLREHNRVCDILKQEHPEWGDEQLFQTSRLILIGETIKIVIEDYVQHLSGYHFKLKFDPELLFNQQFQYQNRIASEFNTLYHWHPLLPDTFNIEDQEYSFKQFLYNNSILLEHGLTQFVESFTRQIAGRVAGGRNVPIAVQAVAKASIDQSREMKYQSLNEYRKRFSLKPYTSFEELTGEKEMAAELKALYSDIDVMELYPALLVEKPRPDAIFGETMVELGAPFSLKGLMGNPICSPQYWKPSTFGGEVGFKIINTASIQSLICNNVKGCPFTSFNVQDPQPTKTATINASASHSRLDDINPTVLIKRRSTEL
Procedure: as §1
Inhibition Assay Using Purified COX-1 and COX-2. Inhibition of purified ovine COX-1 or mouse COX-2 by test compounds was assayed by a previously described method, which quantifies the conversion of [1-^14C]arachidonic acid to [1-^14C]prostaglandin products. Reaction mixtures of 200 ∝L consisted of hematin-reconstituted protein in 100 mM Tris-HCl, pH 8.0, 500 μM phenol, and [1-^14C]arachidonic acid (50 μM, ˜55-57 mCi/mmol, Perkin Elmer). For the time-dependent inhibition assay, hematin-reconstituted COX-1 ([…]) was preincubated at 25° C. for 17 min and 37° C. for 3 min with varying inhibitor concentrations in dimethylsulfoxide followed by the addition of [1-^14C]arachidonic acid (50 μM) for 30 s at 37° C. Reactions were terminated by solvent extraction in diethyl ether:methanol:1 M citrate buffer, pH 4.0 (30:4:1). The phases were separated by centrifugation at 2000 g for 2 min, and the organic phase was spotted on a thin-layer chromatography plate (EMD Kieselgel 60, VWR). The plate was developed in ethyl acetate:methylene chloride:glacial AcOH (75:25:1) at 4° C. Radiolabeled products were quantified with a radioactivity scanner (Bioscan, Inc., Washington, D.C.).

[3] = Fluorometry: extinction, quantum yield, fluorescence in DMSO/EtOH; format: physicochemical
Procedure: The TEMPO- and PROXYL-fluorocoxib probes are non-fluorescent (Φfl<0.3) in their non-trapped form, whereas fluorocoxib A or B are highly fluorescent (Φfl[…]) (FIG. 13). However, the absorbance and fluorescence of the TEMPO- and PROXYL-fluorocoxib probes increases in a time-dependent fashion when incubated in a DMSO/EtOH solution (FIGS. 14-15). Referring to FIG. 15, it is noted that at about 16 hours, fluorescence (ex 586 nm) read about 120,000 cps at 607 nm. Turning to FIG. 16, as compared to 5-ROX acid, which had extinction of 36/mM/cm at 580 nm and quantum yield of 0.94 at 604 nm, and fluorocoxib A, which had extinction of 45/mM/cm at 579 nm and quantum yield of 0.93 at 602 nm, fluorocoxib Q1 had extinction of less than 0.4/mM/cm at 586 nm and quantum yield of less than 0.36 at 607 nm. Without wishing to be bound by theory, it is believed that the time-dependent increase in fluorescence and measured fluorescence at 607 nm is the result of reduction/oxidation of fluorocoxib Q1 in the DMSO/EtOH solution (FIG. 16).
Fluorometry. Steady state fluorescence excitation and emission spectra were determined for each compound with a Spex 1681 Fluorolog spectrofluorometer, equipped with a 450 W xenon arc lamp. […]

[4] = test system: 4T1 orthotopic breast cancer xenografts; assay: In vivo image-guidance of chemocoxib A delivery, orthotopic 4T1 breast cancer xenografts; details: tumor homogenate, LC-MS, 49 h after CA-FQ-NPs (1 mg/kg CA, 1 mg/kg FQ, s.c.)
Procedure: To generate orthotopic breast cancer xenografts, the 4T1 tumor cells (1×10^6 in 200 μL sterile PBS) were injected into the inguinal mammary fat-pads of athymic Balb/C nu/nu female mice (4-6 weeks old, Jax Mice). Tumors were full-grown by 4-5 weeks (tumor volume=length×width^2×0.52).
The animals were dosed with CA-FQ-NPs in PBS (1 mg/kg CA, 1 mg/kg FQ, s.c.) and imaged on a Xenogen IVIS200 optical imaging instrument at 0.5 h, 1 h, 3 h, 6 h, 28 h, and 49 h post-injection. […] After in vivo imaging, the 49 h animals group was euthanized, and brain, muscle, tumor, liver, lung, and kidney tissues were collected (FIG. 32D).

[5] = target: T3, hCOX-2 in 1483 cells (Homo sapiens, UniProt P35354); assay: Intact cell COX-2 inhibition assay in 1483 HNSCC cells; format: cell-based; details: high throughput screening, intact cancer cells; read-out: COX-2 positive 1483 HNSCC cells IC50
T3 construct: cells that express high levels of COX-2 were selected; endogenous in cells; host or cells: 1483 human head and neck squamous cell carcinoma (HNSCC) cells
T3 sequence (P35354 18-604): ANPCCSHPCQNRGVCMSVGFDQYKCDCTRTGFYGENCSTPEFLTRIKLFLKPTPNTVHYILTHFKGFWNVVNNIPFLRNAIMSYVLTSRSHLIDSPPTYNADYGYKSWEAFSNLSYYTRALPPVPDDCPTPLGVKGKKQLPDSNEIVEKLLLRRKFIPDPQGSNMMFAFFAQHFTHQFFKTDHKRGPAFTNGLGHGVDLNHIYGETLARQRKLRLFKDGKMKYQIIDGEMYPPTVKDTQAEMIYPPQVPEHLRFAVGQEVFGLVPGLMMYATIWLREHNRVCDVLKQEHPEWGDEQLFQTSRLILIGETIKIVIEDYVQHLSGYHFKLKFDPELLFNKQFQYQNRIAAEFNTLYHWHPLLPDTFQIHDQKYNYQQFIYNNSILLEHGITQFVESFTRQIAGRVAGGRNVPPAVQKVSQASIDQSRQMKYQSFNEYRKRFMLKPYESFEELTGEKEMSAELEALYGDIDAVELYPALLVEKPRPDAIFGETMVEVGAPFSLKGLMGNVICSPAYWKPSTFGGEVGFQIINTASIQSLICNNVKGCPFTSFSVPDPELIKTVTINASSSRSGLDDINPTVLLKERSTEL
Procedure: Following the promising results from the purified enzyme assay, the ability of compound 1 to inhibit COX-2 in intact cells was examined using a previously reported method. 1483 human head and neck squamous cell carcinoma (1483 HNSCC) cells that express high levels of COX-2 were selected. […]
Cell Culture and In Vitro Intact Cell Metabolism Assay. Inhibition of COX-2 in intact cells by test compounds was assayed by a previously described method. Human 1483 head and neck squamous cell carcinoma (HNSCC) cells (passage 8-18, mycoplasma negative by a polymerase chain reaction detection method) were cultured in DMEM/F12+10% fetal bovine serum+Antibiotic/Antimycotic in 6-well plates to 60% confluence. […] Reactions were terminated and analyzed by thin layer chromatography as described above.

[6] = COX-2 IC50, in vitro purified cox assay
[7] = mCOX-2 IC50, purified murine COX-2 (63 nM), inhibitor 20 min, then 1-14C-AA (50 μM) 37° C. 30 s, duplicates

| SMILES | IC50 [1] | COX-2 Selectivity Index (COX-1 IC50/COX-2 IC50) [2] | IC50 [2, 7] | further results |
| --- | --- | --- | --- | --- |
| COc1ccc2c(c1)c(CC(=O)NCCCCNC(=O)c1ccc(C(=O)NC3CC(C)(C)N([O])C(C)(C)C3)c(C3=c4cc5c6c(c4Oc4c3cc3c7c4CCCN7CCC3)CCC[N+]=6CCC5)c1)c(C)n2C(=O)c1ccc(Cl)cc1 [Compound 2] | > 25000 nM | >75 | 330 nM | IC50 [2, 6]: 332 nM |
| COc1ccc2c(c1)c(CC(=O)NCCCCNC(=O)c1ccc(C3=c4cc5c6c(c4Oc4c3cc3c7c4CCCN7CCC3)CCC[N+]=6CCC5)c(C(=O)Nc3ccc(C(=O)OC4CC(C)(C)N([O])C(C)(C)C4)cc3)c1)c(C)n2C(=O)c1ccc(Cl)cc1 [Compound 3] | > 25000 nM | >54 |  | IC50 [2, 6]: 460 nM |
| COc1ccc2c(c1)c(CC(=O)NCCCCNC(=O)c1ccc(C(=O)[O-])c(C3=c4cc5c6c(c4Oc4c3cc3c7c4CCCN7CCC3)CCC[N+]=6CCC5)c1)c(C)n2C(=O)c1ccc(Cl)cc1 [Fluorocoxib B, reference compound] |  | >31 |  | IC50 ([1]; purified ovine COX-1 (22.5 nM), inhibitor 20 min, then 1-14C-AA (50 μM) 37° C. 30 s, duplicates, read-out: oCOX-1 IC50): > 25000 nM; IC50 ([2]; purified murine COX-2 (63 nM), inhibitor 20 min, then 1-14C-AA (50 μM) 37° C. 30 s, duplicates, read-out: mCOX-2 IC50): 800 nM |
| O=C(O)c1ccc(C(=O)[O-])c(C2=c3cc4c5c(c3Oc3c2cc2c6c3CCCN6CCC2)CCC[N+]=5CCC4)c1 [5-ROX acid] |  |  |  | extinction ([3]; at 580 nm (5-ROX acid), 579 nm (fluorocoxib A), 586 nm (fluorocoxib Q1)): 36 mM⁻¹ cm⁻¹; quantum yield ([3]; at 604 nm (5-ROX acid), 602 nm (fluorocoxib A), 607 nm (fluorocoxib Q1)): 0.94 |
| COc1ccc2c(c1)c(CC(=O)NCCCCNC(=O)c1ccc(C3=c4cc5c6c(c4Oc4c3cc3c7c4CCCN7CCC3)CCC[N+]=6CCC5)c(C(=O)OC3CC(C)(C)N([O])C(C)(C)C3)c1)c(C)n2C(=O)c1ccc(Cl)cc1 [Compound 4] | > 25000 nM | >20 | 1240 nM |  |
| COc1ccc2c(c1)c(CC(=O)NCCCCNC(=O)c1ccc(C3=c4cc5c6c(c4Oc4c3cc3c7c4CCCN7CCC3)CCC[N+]=6CCC5)c(C(=O)NCC3CC(C)(C)N([O])C3(C)C)c1)c(C)n2C(=O)c1ccc(Cl)cc1 (centres unmarked) [Compound 5] | > 25000 nM | >13 | 1800 nM |  |
| COc1ccc2c(c1)c(CC(=O)NCCCCNC(=O)CCC(=O)O[C@H]1c3cc4c(cc3[C@@H](c3cc(OC)c(OC)c(OC)c3)[C@H]3C(=O)OC[C@@H]31)OCO4)c(C)n2C(=O)c1ccc(Cl)cc1 [chemocoxib A, reference compound] |  |  |  | level in tumor tissue [4]: 3.1 pmol/g tissue; IC50 [5]: 200 nM |
